Results published in PubChem BioAssay AID651985 (The Scripps Research Institute Molecular Screening Center, 2013).
Calls of active or inactive are those of the source. How the calls were made is not given here.

Columns and labels:
LYPLA1 = assay: PubChem AID 651985; conditions: C57 mice dosed, tissue gel ABPP with NHU5 probe, stronger effect = higher value
LYPLA2 = assay: PubChem AID 651985; conditions: C57 mice dosed, tissue gel ABPP with NHU5 probe, stronger effect = higher value

| Compound | inhibition (LYPLA1; heart) [%] | inhibition (LYPLA1) | inhibition (LYPLA1; kidney) [%] | inhibition (LYPLA1; liver) [%] | inhibition (LYPLA1; lung) [%] | inhibition (LYPLA2; heart) [%] | inhibition (LYPLA2) | inhibition (LYPLA2; kidney) [%] | inhibition (LYPLA2; liver) [%] | inhibition (LYPLA2; lung) [%] |
| --- | --- | --- | --- | --- | --- | --- | --- | --- | --- | --- |
| O=C(CN1CCN(C(=O)c2ccco2)CC1)Nc1cc(C(F)(F)F)ccc1Cl | 100 | 25% | 75 | 0 | 100 | 0 | 0% (inactive) | 0 | 0 | 0 |
| COc1ccc(N2CCN(C(=O)c3cc4c(s3)-c3ccccc3S(=O)(=O)C4)CC2)cc1 | 0 | 0% (inactive) | 0 | 0 | 0 | 100 | 50% | 75 | 0 | 100 |
